Measured values from paper PMC8815272 (The Journal of Supercritical Fluids, 2022).

Tests used:
[1] = Solubility of favipiravir in supercritical CO2; format: physicochemical
[2] = format: physicochemical; conditions: binary system favipiravir-SC-CO2, from model
[3] = high permeability, low water solubility; cited from earlier work

In the case of `NC(=O)c1nc(F)c[nH]c1=O` [Favipiravir], the “y2 × 10^4 (Mole Fraction)” value ([1]; SC-CO2, 308 K, 12 MPa, density 768.42 kg/m^3) is reported as 0.53 mole fraction × 10^4, the “y2 × 10^4 (Mole Fraction)” value ([1]; SC-CO2, 308 K, 15 MPa, density 816.06 kg/m^3) is reported as 0.87 mole fraction × 10^4 and the “y2 × 10^4 (Mole Fraction)” value ([1]; SC-CO2, 308 K, 18 MPa, density 848.87 kg/m^3) is reported as 1.44 mole fraction × 10^4. The “y2 × 10^4 (Mole Fraction)” value ([1]; SC-CO2, 308 K, 21 MPa, density 874.40 kg/m^3) was 2.31 mole fraction × 10^4, the “y2 × 10^4 (Mole Fraction)” value ([1]; SC-CO2, 308 K, 24 MPa, density 895.54 kg/m^3) was 3.42 mole fraction × 10^4 and the “y2 × 10^4 (Mole Fraction)” value ([1]; SC-CO2, 308 K, 27 MPa, density 913.69 kg/m^3) was 4.09 mole fraction × 10^4. For the same compound, the “y2 × 10^4 (Mole Fraction)” value ([1]; SC-CO2, 308 K, 30 MPa, density 929.68 kg/m^3) was 5.13 mole fraction × 10^4, the “y2 × 10^4 (Mole Fraction)” value ([1]; SC-CO2, 318 K, 12 MPa, density 659.73 kg/m^3) was 0.37 mole fraction × 10^4 and the “y2 × 10^4 (Mole Fraction)” value ([1]; SC-CO2, 318 K, 15 MPa, density 743.17 kg/m^3) was 0.80 mole fraction × 10^4. For the same compound, the “y2 × 10^4 (Mole Fraction)” value ([1]; SC-CO2, 318 K, 18 MPa, density 790.18 kg/m^3) was 1.30 mole fraction × 10^4, the “y2 × 10^4 (Mole Fraction)” value ([1]; SC-CO2, 318 K, 21 MPa, density 823.70 kg/m^3) was 2.72 mole fraction × 10^4 and the “y2 × 10^4 (Mole Fraction)” value ([1]; SC-CO2, 318 K, 24 MPa, density 850.10 kg/m^3) was 4.29 mole fraction × 10^4. For the same compound, the “y2 × 10^4 (Mole Fraction)” value ([1]; SC-CO2, 318 K, 27 MPa, density 872.04 kg/m^3) was 5.41 mole fraction × 10^4, the “y2 × 10^4 (Mole Fraction)” value ([1]; SC-CO2, 318 K, 30 MPa, density 890.92 kg/m^3) was 6.48 mole fraction × 10^4 and the “y2 × 10^4 (Mole Fraction)” value ([1]; SC-CO2, 328 K, 12 MPa, density 506.85 kg/m^3) was 0.08 mole fraction × 10^4. The “y2 × 10^4 (Mole Fraction)” value ([1]; SC-CO2, 328 K, 15 MPa, density 654.94 kg/m^3) was 0.60 mole fraction × 10^4, the “y2 × 10^4 (Mole Fraction)” value ([1]; SC-CO2, 328 K, 18 MPa, density 724.13 kg/m^3) was 1.39 mole fraction × 10^4 and the “y2 × 10^4 (Mole Fraction)” value ([1]; SC-CO2, 328 K, 21 MPa, density 768.74 kg/m^3) was 3.21 mole fraction × 10^4. The “y2 × 10^4 (Mole Fraction)” value ([1]; SC-CO2, 328 K, 24 MPa, density 801.92 kg/m^3) was 4.75 mole fraction × 10^4, the “y2 × 10^4 (Mole Fraction)” value ([1]; SC-CO2, 328 K, 27 MPa, density 828.51 kg/m^3) was 6.58 mole fraction × 10^4 and the “y2 × 10^4 (Mole Fraction)” value ([1]; SC-CO2, 328 K, 30 MPa, density 850.83 kg/m^3) was 7.65 mole fraction × 10^4. The “y2 × 10^4 (Mole Fraction)” value ([1]; SC-CO2, 338 K, 12 MPa, density 384.17 kg/m^3) was 0.03 mole fraction × 10^4, the “y2 × 10^4 (Mole Fraction)” value ([1]; SC-CO2, 338 K, 15 MPa, density 555.23 kg/m^3) was 0.37 mole fraction × 10^4 and the “y2 × 10^4 (Mole Fraction)” value ([1]; SC-CO2, 338 K, 18 MPa, density 651.18 kg/m^3) was 1.32 mole fraction × 10^4. The “y2 × 10^4 (Mole Fraction)” value ([1]; SC-CO2, 338 K, 21 MPa, density 709.69 kg/m^3) was 3.92 mole fraction × 10^4, the “y2 × 10^4 (Mole Fraction)” value ([1]; SC-CO2, 338 K, 24 MPa, density 751.17 kg/m^3) was 5.6 mole fraction × 10^4 and the “y2 × 10^4 (Mole Fraction)” value ([1]; SC-CO2, 338 K, 27 MPa, density 783.29 kg/m^3) was 7.57 mole fraction × 10^4. The “y2 × 10^4 (Mole Fraction)” value ([1]; SC-CO2, 338 K, 30 MPa, density 809.58 kg/m^3) was 9.05 mole fraction × 10^4, the “total heat (ΔHtotal)” value [2] was 16.75 kcal/mol and the “vaporization heat (ΔHvap)” value [2] was 21.54 kcal/mol. For the same compound, the “class in the Biopharmaceutics Classification System (BCS)” value [3] was “class II”.
